Measurements from patent US10654834B2 (Venenum Biodesign, LLC, priority 2016, dated 2020).
Counter-ions that a name gives are not always drawn.

Assays:
human TGR5 receptor = molecular target: T1, human TGR5 receptor (Homo sapiens, UniProt Q8TDU6); test: Human TGR5 cAMP production assay (hTGR5-CHO cells, DiscoveRx cAMP XS+ kit); assay type: cell-based; details: luminescent cAMP assay, read-out: Human TGR5 Lum. cAMP Activity (EC50)
T1 construct: host or cells: CHO-K1 (hTGR5-CHO)
T1 sequence (Q8TDU6 1-330): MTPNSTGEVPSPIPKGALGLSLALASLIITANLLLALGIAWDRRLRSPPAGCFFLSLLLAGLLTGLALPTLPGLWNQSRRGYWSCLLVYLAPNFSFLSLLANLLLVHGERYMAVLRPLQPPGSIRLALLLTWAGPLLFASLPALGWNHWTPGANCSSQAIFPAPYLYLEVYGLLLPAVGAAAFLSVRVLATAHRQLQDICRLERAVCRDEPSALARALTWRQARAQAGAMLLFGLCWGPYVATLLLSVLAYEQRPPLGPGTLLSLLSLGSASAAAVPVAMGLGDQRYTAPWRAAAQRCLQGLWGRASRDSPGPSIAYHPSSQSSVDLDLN
Procedure: Human TGR5 cAMP Production Assay
Compounds of the present invention were evaluated for their ability to induce cAMP production using CHO-K1 cells overexpressing the human TGR5 receptor.
CHO-K1 cells stably expressing human TGR5 receptor (accession number NM_001077194.1) (hTGR5) (i.e., hTGR5-CHO cells) were purchased from DiscoveRx Corporation (Fremont, Calif.). hTGR5-CHO cells were grown in Ham's F-12 media supplemented with 10% Fetal Bovine Serum, 1% Penicillin-Streptomycin, 2 mM L-Alanine L-Glutamine (Glutamax), and 800 μg/mL Geneticin selection. The cAMP production assay was performed using DiscoveRx's cAMP XS+ kit (Catalog No. 90-0075XL) following the manufacturer's recommended protocol. Briefly, hTGR5-CHO cells were harvested using non-enzymatic cell dissociation buffer (Sigma-Aldrich, St. Louis, Mo.) and 1×10^6 cells were combined in Phosphate-Buffered Saline (PBS) to a final volume of 496 μL to which 4 μL of 125 mM IBMX (Sigma-Aldrich, St. Louis, Mo.) was added. 500 μL of cAMP antibody solution was added to the harvested cells and incubated at room temperature for 20 min.
Test compounds were serially diluted (half-log dilutions) in DMSO and then further diluted 1:50 in PBS, 10 mM HEPES buffer. 2 μL of serially diluted compound was added to a 384-well low volume plate (Greiner; cat #784075) and centrifuged briefly. 2 μl of the cell/cAMP antibody mixture was then added to each compound-containing well and allowed to incubate at room temperature for one hour. Following incubation, the XS+ kits' ED/Lysis/CL Substrate Working Solution was prepared following the manufacturer's recommended protocol and 4 μL was added to each well of the plate. The plate was then incubated for one hour at room temperature. Following incubation, 4 μL of Enzyme Acceptor reagent was added to the plate and allowed to incubate overnight at room temperature. Luminescent signal was then detected using the Viewlux instrument (Perkin-Elmer, Waltham, Mass.).
Human and Mouse TGR5 cAMP
(§1) In Table 52, EC50 values for both human and mouse cells were determined according to the TGR5 cAMP assays described above. […]

mouse TGR5 receptor = molecular target: T2, mouse TGR5 receptor (Mus musculus, UniProt Q80SS6); test: Mouse TGR5 HTRF cAMP production assay (HEK293-EBNA cells, Cisbio cAMP HiRange kit); assay type: cell-based; details: HEK293-EBNA cells overexpressing mouse TGR5, HTRF cAMP assay
T2 construct: host or cells: HEK293-EBNA (293 c18, ATCC CRL10852)
T2 sequence (Q80SS6 1-329): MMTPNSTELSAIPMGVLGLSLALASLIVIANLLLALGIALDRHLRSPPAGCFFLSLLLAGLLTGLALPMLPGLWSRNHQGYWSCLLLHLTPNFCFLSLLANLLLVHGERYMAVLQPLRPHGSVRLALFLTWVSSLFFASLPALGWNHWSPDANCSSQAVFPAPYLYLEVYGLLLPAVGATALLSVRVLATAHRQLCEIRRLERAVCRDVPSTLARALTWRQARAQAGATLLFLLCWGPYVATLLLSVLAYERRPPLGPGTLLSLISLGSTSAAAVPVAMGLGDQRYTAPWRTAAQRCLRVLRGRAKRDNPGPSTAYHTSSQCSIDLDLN
Procedure: Mouse TGR5 cAMP Production Assay
Compounds of the present invention were evaluated for their ability to induce cAMP production in HEK-EBNA cells overexpressing the mouse TGR5 receptor. Human embryonic kidney cells (HEK293-EBNA) stably expressing mouse TGR5 receptor were established using the following procedure. Specifically, a commercially obtained gene encoding mouse TGR5 (accession number BC116914) from Thermo Scientific (Waltham, Mass.) was cloned into an episomal expression vector. The resulting expression plasmid was then transfected into 293 c18 (ATCC® CRL10852™) cells, which express the Epstein-Barr virus nuclear antigen EBNA1 and can support the replication of episomal vectors. Selection for the plasmid was maintained with Hygromycin B. Cells were cultured and maintained in DMEM (Sigma; cat #6429) supplemented with 10% Fetal Bovine Serum, 1% penicillin/streptomycin, 2 mM L-alanine L-glutamine (GlutaMax), and 250 μg/mL Hygromycin.
We developed two cAMP production assays.
(ii) HTRF cAMP Production Assay
In this second cAMP production assay, the cAMP production was measured in 384-well low volume plates (Greiner; cat #784075) using the Cisbio™ cAMP HiRange HTRF Assay Kit (CisBio) according to the manufacturer's protocol.
Briefly, compounds were initially diluted in 100% DMSO (12-point serial dilution by half logs) in a 96-well plate and then were further diluted 1:50 in PBS containing 10 mM HEPES. 5 μL were transferred to the 384-well assay plate in duplicate. HEK293-EBNA cells stably overexpressing mouse TGR5 were harvested using non-enzymatic cell dissociation buffer (Sigma), spun down, then resuspended in serum-free DMEM with 500 μM IBMX at a density of 500,000 cells/mL. 5 μL of cell suspension was transferred to each well of the 384-well assay plate already containing compound. The plate was covered and incubated at room temperature for 1 hour. The d2-cAMP and anti-cAMP Ab-cryptate stock solutions were prepared as per kit instructions. Then 5 μL of each conjugate (d2 and cryptate) were added to each well of the assay plate. The plate was covered and incubated at room temperature for one (1) hour. The plate was read on an Envision™ plate reader (PerkinElmer).
as §1

| EC50 (human TGR5 receptor) | EC50 (mouse TGR5 receptor) | SMILES |
| --- | --- | --- |
| 1000 to 30000 nM | 1000 to 30000 nM | N#Cc1ccc(CCNC(=O)[C@@H]2CCCN2c2cc(NCCS(=O)(=O)O)nc(C(F)(F)F)n2)cc1 [Compound 12] |
| < 100 nM | < 100 nM | N#Cc1ccc(CCNC(=O)[C@@H]2CCCN2c2cc(N3CCC(CCCC(=O)N[C@H](CCCNC(=N)N)C(=O)N[C@H](CCC(=O)O)C(=O)O)CC3)nc(C(F)(F)F)n2)cc1 [Compound 203, (R)-2-((R)-2-(4-(1-(6-((S)-2-((4-cyanophenethyl)carbamoyl)pyrrolidin-1-yl)-2-(trifluoromethyl)pyrimidin-4-yl)piperidin-4-yl)butanamido)-5-guanidino-pentanamido)pentanedioic acid] |
| < 100 nM | < 100 nM | N#CCCN1CCN(c2cc(N3CCC[C@@H](C(=O)NCCc4ccc(C#N)cc4)C3)nc(C(F)(F)F)n2)CC1 [Compound 316, (R)-1-(6-(4-(2-cyanoethyl)piperazin-1-yl)-2-(trifluoromethyl)pyrimidin-4-yl)-N-(4-cyanophenethyl)piperidine-3-carboxamide] |
| < 100 nM | < 100 nM | N#Cc1ccc(CCNC(=O)[C@@H]2CCCN2c2cc(N3CCC(CCCO)CC3)nc(C(F)(F)F)n2)cc1 [Compound 23] |
| < 100 nM | < 100 nM | O=C(O)CCCC1CCN(c2cc(N3CC[C@H]3C(=O)NCCc3ccc(C(F)(F)F)cc3)nc(C(F)(F)F)n2)CC1 [Compound 233, (S)-4-(1-(2-(trifluoromethyl)-6-(2-((4-(trifluoromethyl)phenethyl)carbamoyl)azetidin-1-yl)pyrimidin-4-yl)piperidin-4-yl)butanoic acid] |
| < 100 nM | < 100 nM | COC(=O)[C@H](CCC[N+](C)(C)C)NC(=O)CCCC1CCN(c2cc(N3CCC[C@H]3C(=O)NCCc3ccc(C#N)cc3)nc(C(F)(F)F)n2)CC1 [Compound 65, (S)-4-(4-(1-(6-((S)-2-((4-cyanophenethyl)carbamoyl)pyrrolidin-1-yl)-2-(trifluoromethyl)pyrimidin-4-yl)piperidin-4-yl)butanamido)-5-methoxy-N,N,N-trimethyl-5-oxopentan-1-aminium] |
| < 100 nM | < 100 nM | CCOC(=O)CCN/C(=N\C#N)NCCC1CCN(c2cc(N3CC[C@H]3C(=O)NCCc3ccc(C#N)cc3)nc(C(F)(F)F)n2)CC1 [Compound 350, (S,Z)-ethyl 3-(2-cyano-3-(2-(1-(6-(2-((4-cyanophenethyl)carbamoyl)azetidin-1-yl)-2-(trifluoromethyl)pyrimidin-4-yl)piperidin-4-yl)ethyl)guanidino)propanoate] |
| 100 to 999 nM | < 100 nM | O=C(CCC1CCN(c2cc(N3CC[C@H]3C(=O)NCCc3ccc(C(F)(F)F)cc3)nc(C(F)(F)F)n2)CC1)NCCS(=O)(=O)O [Compound 254, (S)-2-(3-(1-(2-(trifluoromethyl)-6-(2-((4-(trifluoromethyl)-phenethyl)carbamoyl)azetidin-1-yl)pyrimidin-4-yl)piperidin-4-yl)propanamido)ethanesulfonic acid] |
| < 100 nM | < 100 nM | NCCNC(=O)CCCC1CCN(c2cc(N3CCC[C@H]3C(=O)NCCc3ccc(C(F)(F)F)cc3)nc(C(F)(F)F)n2)CC1 [Compound 90, (S)-1-(6-(4-(4-((2-aminoethyl)amino)-4-oxobutyl)piperidin-1-yl)-2-(trifluoromethyl)pyrimidin-4-yl)-N-(4-(trifluoromethyl)phenethyl)pyrrolidine-2-carboxamide hydrochloride] |
| 100 to 999 nM | < 100 nM | N#Cc1ccc(CCNC(=O)[C@@H]2CCN2c2cc(N3CCC(CCCC(=O)NCCOCCNS(=O)(=O)c4ccc(C(=O)O)cc4)CC3)nc(C(F)(F)F)n2)cc1 [Compound 291, (S)-4-(N-(2-(2-(4-(1-(6-(2-((4-cyanophenethyl)carbamoyl)azetidin-1-yl)-2-(trifluoromethyl)pyrimidin-4-yl)piperidin-4-yl)butanamido)ethoxy)ethyl)sulfamoyl)-benzoic acid] |
| < 100 nM | < 100 nM | N#Cc1ccc(CCNC(=O)[C@@H]2CCCN2c2cc(-c3ccc(COCC(=O)NCS(=O)(=O)O)cc3)cc(C(F)(F)F)n2)cc1 [Compound 209, (S)-(2-((4-(2-(2-((4-cyanophenethyl)carbamoyl)pyrrolidin-1-yl)-6-(trifluoromethyl)pyridin-4-yl)benzyl)oxy)acetamido)methanesulfonic acid] |
| 100 to 999 nM | < 100 nM | O=C(NCCc1ccc(C(F)(F)F)cc1)[C@@H]1CCN1c1cc(N2CCC(CCCC3CCN(C(=O)CS(=O)(=O)O)CC3)CC2)nc(C(F)(F)F)n1 [Compound 280, (S)-2-oxo-2-(4-(3-(1-(2-(trifluoromethyl)-6-(2-((4-(trifluoromethyl)phenethyl)carbamoyl)azetidin-1-yl)pyrimidin-4-yl)piperidin-4-yl)propyl)piperidin-1-yl)ethanesulfonic acid] |
| < 100 nM | < 100 nM | N#Cc1ccc(CCNC(=O)[C@@H]2CCCN2c2cc(N3CCC(CCNC(=O)NCCNC(=O)[C@@H](N)CS(=O)(=O)O)CC3)nc(C(F)(F)F)n2)cc1 [Compound 373, (R)-2-amino-3-((2-(3-(2-(1-(6-((S)-2-((4-cyanophenethyl)carbamoyl)pyrrolidin-1-yl)-2-(trifluoromethyl)pyrimidin-4-yl)piperidin-4-yl)ethyl)ureido)ethyl)amino)-3-oxopropane-1-sulfonic acid] |
| < 100 nM | < 100 nM | N#Cc1ccc(CCNC(=O)[C@@H]2CCCN2c2cc(N3CCC(CCN4C(=O)N[C@@H](CS(=O)(=O)O)C4=O)CC3)nc(C(F)(F)F)n2)cc1 [Compound 122, ((R)-1-(2-(1-(6-((S)-2-((4-cyanophenethyl)carbamoyl)pyrrolidin-1-yl)-2-(trifluoromethyl)pyrimidin-4-yl)piperidin-4-yl)ethyl)-2,5-dioxoimidazolidin-4-yl)methanesulfonic acid] |
